pIC50: −log10 of the molar value. *1 amine or outer side, *2 acyl side, *3 side chain or, on linkers, in order; H or OH if unused. Where a SMILES comes first, the peptide text is derived from it. Bridges are numbered along the chain shown (N, C = ends). Roman numbers before positions name the chains, in order. [ ]: non-standard residue; d: D form. NH(CH2)3(OCH2CH2)2O(CH2)3NH = C(CN[*:1])COCCOCCOCCCN[*:2]; Dip = N[C@H](C(=O)O)C(c1ccccc1)c1ccccc1; Chg = N[C@H](C(=O)O)C1CCCCC1; NMeA = CN[C@@H](C)C(=O)O; dNMeA = CN[C@H](C)C(=O)O
Biological target: T1, MLXBIR3SG (Homo sapiens, UniProt Q96CA5, S150G)
T1 sequence (Q96CA5 with tags, fused parts or gaps S150G): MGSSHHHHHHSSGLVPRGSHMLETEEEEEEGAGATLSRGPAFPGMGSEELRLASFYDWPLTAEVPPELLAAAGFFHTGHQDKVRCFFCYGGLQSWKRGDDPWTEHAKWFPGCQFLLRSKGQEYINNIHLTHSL
Experiment: Fluorescence Polarization Peptide Binding Assay
Conditions: competition with 5 nM AVP-diPhe-FAM probe, MLXBIR3SG at 30 nM
Protocol: In the following experiments was used a chimeric BIR domain referred to as MLXBIR3SG in which 11 of 110 residues correspond to those found in XIAP-BIR3, while the remainder correspond to ML-IAP-BIR. […] The improved caspase-9 inhibition of the chimeric BIR domain MLXBIR3SG has been correlated with increased inhibition of doxorubicin-induced apoptosis when transfected into MCF7 cells.
Polarization experiments were performed on an Analyst HT 96-384 (Molecular Devices Corp.) according to the procedure of Keating, S. M., Marsters, J, Beresini, M., Ladner, C., Zioncheck, K., Clark, K., Arellano, F., and Bodary., S. (2000) in Proceedings of SPIE: In Vitro Diagnostic Instrumentation (Cohn, G. E., Ed.) pp 128-137, Bellingham, Wash. Samples for fluorescence polarization affinity measurements were prepared by addition of 1:2 serial dilutions starting at a final concentration of 5 μM of MLXBIR3SG in polarization buffer (50 mM Tris [pH 7.2], 120 mM NaCl, 1% bovine globulins 5 mM DTT and 0.05% octylglucoside) to 5-carboxyflourescein-conjugated AVPdi-Phe-NH2 (AVP-diPhe-FAM) at 5 nM final concentration.
The reactions were read after an incubation time of 10 minutes at room temperature with standard cut-off filters for the fluorescein fluorophore (λex=485 nm; λem=530 nm) in 96-well black HE96 plates (Molecular Devices Corp.). Fluorescence values were plotted as a function of the protein concentration, and the IC50s were obtained by fitting the data to a 4-parameter equation using Kaleidograph software (Synergy software, Reading, Pa.). Competition experiments were performed by addition of the MLXBIR3SG at 30 nM to wells containing 5 nM of the AVP-diPhe-FAM probe as well as 1:3 serial dilutions of antagonist compounds starting at a concentration of 300 μM in the polarization buffer. Samples were read after a 10-minute incubation. Fluorescence polarization values were plotted as a function of the antagonist concentration, and the IC50 values were obtained by fitting the data to a 4-parameter equation using Kaleidograph software (Synergy software, Reading, Pa.) Inhibition constants (Ki) for the antagonists were determined from the IC50 values.

Row | Compound | pIC50
1 | CN[C@@H](C)C(=O)N[C@H](C(=O)N1CC(OCc2ccc(C#CC#Cc3ccc(CO[C@H]4C[C@@H](C(=O)Nc5snnc5-c5ccccc5)N(C(=O)[C@@H](NC(=O)[C@H](C)NC)C5CCCCC5)C4)cc3)cc2)C[C@H]1C(=O)Nc1snnc1-c1ccccc1)C1CCCCC1 (stereo partly drawn) [compound 4] | 5.62
2 | CN[C@@H](C)C(=O)N[C@H](C(=O)N1CCC[C@H]1C(=O)N[C@H](C(=O)NCCCOCCOCCOCCCNC(=O)[C@@H](NC(=O)[C@@H]1CCCN1C(=O)[C@@H](NC(=O)[C@@H](C)NC)C1CCCCC1)C(c1ccccc1)c1ccccc1)C(c1ccccc1)c1ccccc1)C1CCCCC1 [compound 10] (I: H-[NMeA][Chg]P[Dip] / II: H-[dNMeA][Chg]P[Dip]; linker I:C-II:C via NH(CH2)3(OCH2CH2)2O(CH2)3NH) | 5.88
3 | CN[C@@H](C)C(=O)N[C@H](C(=O)N1CCC[C@H]1C(=O)Nc1sc(-c2nccs2)nc1-c1ccccc1)c1ccc(OCC#CC#CCOc2ccc([C@H](NC(=O)[C@H](C)N)C(=O)N3CCC[C@H]3C(=O)Nc3sc(-c4nccs4)nc3-c3ccccc3)cc2)cc1 [compound 11] | 5.99
4 | CN[C@@H](C)C(=O)N[C@H](C(=O)N1CCC[C@H]1C(=O)Nc1sc(-c2nccn2C)nc1-c1ccccc1)c1ccc(OCC#CC#CCOc2ccc([C@H](NC(=O)[C@H](C)NC)C(=O)N3CCC[C@H]3C(=O)Nc3sc(-c4nccn4C)nc3-c3ccccc3)cc2)cc1 [compound 12] | 5.96
5 | CN[C@@H](C)C(=O)N[C@H](C(=O)N1CCC[C@H]1C(=O)Nc1sc(-c2ccccn2)nc1-c1ccccc1)c1ccc(OCC#CC#CCOc2ccc([C@H](NC(=O)[C@H](C)NC)C(=O)N3CCC[C@H]3C(=O)Nc3sc(-c4nccn4C)nc3-c3ccccc3)cc2)cc1 [compound 13] | 5.42
6 | CN[C@@H](C)C(=O)N[C@H](C(=O)N1CCC[C@H]1C(=O)Nc1sc(-c2ccccn2)nc1-c1ccccc1)c1ccc(OCC#CC#CCOc2ccc([C@H](NC(=O)[C@H](C)NC)C(=O)N3CCC[C@H]3C(=O)Nc3sc(-c4ccccn4)nc3-c3ccccc3)cc2)cc1 [compound 14] | 5.63
7 | CN[C@@H](C)C(=O)N[C@H](C(=O)N1CCC[C@H]1C(=O)Nc1sc(C(=O)NCCCCCCCCCCCNC(=O)c2nc(-c3ccccc3)c(NC(=O)[C@@H]3CCCN3C(=O)[C@@H](NC(=O)[C@H](C)NC)C3CCCCC3)s2)nc1-c1ccccc1)C1CCCCC1 [compound 15] | 5.42
8 | CN[C@@H](C)C(=O)N[C@H](C(=O)N1CCC[C@H]1C(=O)Nc1sc(C(=O)NCCOCCOCCNC(=O)c2nc(-c3ccccc3)c(NC(=O)[C@@H]3CCCN3C(=O)[C@@H](NC(=O)[C@H](C)NC)C3CCCCC3)s2)nc1-c1ccccc1)C1CCCCC1 [compound 16] | 6.63
9 | CN[C@@H](C)C(=O)N[C@H](C(=O)C1CCCN1c1nc2c(-c3ccccc3)nccc2s1)C1CCN(C(=O)NCCCCCCNC(=O)N2CCC([C@H](NC(=O)[C@H](C)NC)C(=O)N3CCC[C@H]3c3nc4c(-c5ccccc5)nccc4s3)CC2)CC1 (stereo partly drawn) [compound 17] | 6.78
10 | CN[C@@H](C)C(=O)N[C@H](C(=O)N1CCC[C@H]1C(=O)Nc1sc(C(=O)NCC(O)CNC(=O)c2nc(-c3ccccc3)c(NC(=O)[C@@H]3CCCN3C(=O)[C@@H](NC(=O)[C@H](C)NC)C3CCCCC3)s2)nc1-c1ccccc1)C1CCCCC1 [compound 22] | 6.42
11 | CN[C@@H](C)C(=O)N[C@H](C(=O)N1CCC[C@H]1C(=O)Nc1sc(C(=O)NCC(C)(C)CNC(=O)c2nc(-c3ccccc3)c(NC(=O)[C@@H]3CCCN3C(=O)[C@@H](NC(=O)[C@H](C)NC)C3CCCCC3)s2)nc1-c1ccccc1)C1CCCCC1 [compound 23] | 6.17
12 | CN[C@@H](C)C(=O)N[C@H](C(=O)N1CCC[C@H]1C(=O)Nc1sc(C(=O)NCc2ccc(CNC(=O)c3nc(-c4ccccc4)c(NC(=O)C4CCCN4C(=O)[C@H](NC(=O)[C@@H](C)NC)C4CCCCC4)s3)cc2)nc1-c1ccccc1)C1CCCCC1 (stereo partly drawn) [compound 24] | 5.86

Source: patent US8907092B2, “Inhibitors of IAP” (Genentech, Inc., priority 2007, dated 2014)
